The source of these data is paper PMC8611036, “An integrated method for optimized identification of effective natural inhibitors against SARS-CoV-2 3CLpro” (Scientific Reports, 2021).

For data set [1] the following is noted: ref TCMSP database, cited from earlier work; for HBA: number of hydrogen-bond acceptors; for HBD: number of hydrogen-bond donors; for OB (%): oral bioavailability.
Data set [2] relates to SARS-CoV 3CLpro. The class given is biochemical. Particulars: activity class by pIC50 threshold 6.
Data set [3] deals with SARS-CoV 3CLpro. As to conditions: SARS-CoV 3CLpro inhibitors (training set), ref: per compound, cited from earlier work; for pIC50: from literature IC50; for IC50: literature values.
The next data set concerns the target SARS-CoV-2 3CLpro (Severe acute respiratory syndrome coronavirus 2, UniProt P0DTD1). As to conditions: SARS-CoV pIC50 multiplied by similarity index (SI), training set compounds.

As for `O=c1cc(-c2ccc(O)c(O)c2)oc2cc(O)cc(O)c12` [MOL000006, luteolin], in data set [1], the HBA is reported as 6, the HBD was 4, the “OB (%)” value is 36.16% and the BBB is reported as -0.84. Also, in data set [1], the Caco-2 is listed as 0.19, the FASA- was 0.39, the HL is 15.94 and the NRotB is listed as 1.

For cyanidol [MOL000002], in data set [1], the HBA is 6, the HBD was 5, the “OB (%)” value is listed as 1.36% and the BBB is -0.51. Besides, in data set [1], the FASA- is listed as 0.34 and the NRotB is 1.

For `OC[C@@H](O)[C@@H](O)[C@H](O)[C@H](O)CO` [MOL000003, MTL], in data set [1], the HBA is reported as 6, the HBD is reported as 6, the “OB (%)” value is on record as 17.73% and the BBB is reported as -4.07. Moreover, in data set [1], the Caco-2 is -1.58, the FASA- is recorded as 0.18 and the NRotB was 5.

With `O=c1cc(-c2ccc(O)cc2)oc2cc(O)cc(O)c12` [MOL000008, apigenin], in data set [1], the HBA is listed as 5, the HBD is 3, the “OB (%)” value was 23.06% and the BBB is reported as -0.61. In data set [1], the Caco-2 is recorded as 0.43, the FASA- is given as 0.41 and the NRotB is 1.

Regarding `CCOC(=O)/C=C/[C@H](C[C@@H]1CCNC1=O)NC(=O)[C@H](CC(C)C)NC(=O)[C@@H](NC(=O)[C@H](CO)NC(=O)OC(C)(C)C)C(C)C` [CMP179], in the data set on SARS-CoV 3CLpro [2], the “Inact.(<6)/Act.(>=6)” value is listed as “Inact. (Inact.(<6))”. In addition, in the data set with SARS-CoV 3CLpro [3], the pIC50 is reported as 5 and the half-maximal inhibitory concentration (IC50) is 10 µM. For the same molecule, the “SI*pIC50” value on SARS-CoV-2 3CLpro is given as 5.152.

On to `CN(C)c1ccc(C(=O)N[C@@H](Cc2ccccc2)C(=O)Nc2ccc([N+](=O)[O-])cc2Cl)cc1` [CMP119], for which the “Inact.(<6)/Act.(>=6)” value with SARS-CoV 3CLpro [2] is “Act. (Act.(>=6))”. Besides, in the data set on SARS-CoV 3CLpro [3], the pIC50 is recorded as 7.222 and the IC50 is 0.06 µM. For the same molecule, the “SI*pIC50” value on SARS-CoV-2 3CLpro is reported as 7.374.

On to `COc1ccc(C(c2c(O)c3cc(C)ccc3oc2=O)c2c(O)c3cc(C)ccc3oc2=O)cc1` [CMP105], for which the “Inact.(<6)/Act.(>=6)” value in the data set with SARS-CoV 3CLpro [2] is listed as “Inact. (Inact.(<6))”. In addition, in the data set with SARS-CoV 3CLpro [3], the pIC50 was 5.02 and the 50% inhibitory concentration (IC50) is 9.56 µM. For the same molecule, at SARS-CoV-2 3CLpro, the “SI*pIC50” value was 5.171.

Turning to `O=c1cc(-c2ccc(O)cc2)oc2cc(O)cc(O)c12` [CMP152], the “Inact.(<6)/Act.(>=6)” value in the data set on SARS-CoV 3CLpro [2] is on record as “Inact. (Inact.(<6))”. In the data set with SARS-CoV 3CLpro [3], the pIC50 is 3.552 and the IC50 is 281 µM. Besides, the “SI*pIC50” value at SARS-CoV-2 3CLpro amounted to 3.704.

With `Cc1oc(C(C)(C)C)cc1-c1cc(NS(=O)(=O)c2cccs2)[nH]n1` [CMP136], the “Inact.(<6)/Act.(>=6)” value with SARS-CoV 3CLpro [2] was “Inact. (Inact.(<6))”. Further, in the data set on SARS-CoV 3CLpro [3], the negative logarithm of the IC50 (pIC50) is given as 5 and the IC50 was 10 µM. For the same molecule, the “SI*pIC50” value on SARS-CoV-2 3CLpro is listed as 5.152.

Regarding `O=C1C(=O)N(c2cccc3ccccc23)c2ccc(I)cc21` [CMP117], in the data set on SARS-CoV 3CLpro [2], the “Inact.(<6)/Act.(>=6)” value is reported as “Inact. (Inact.(<6))”. Besides, in the data set on SARS-CoV 3CLpro [3], the pIC50 was 5.959 and the IC50 is 1.1 µM. Besides, the “SI*pIC50” value at SARS-CoV-2 3CLpro came out at 6.11.

`O=C(Oc1cncc(Cl)c1)c1ccco1` [CMP158]: the “Inact.(<6)/Act.(>=6)” value with SARS-CoV 3CLpro [2] is “Act. (Act.(>=6))”. In the data set on SARS-CoV 3CLpro [3], the pIC50 was 7.222 and the IC50 was 0.06 µM. At SARS-CoV-2 3CLpro, the “SI*pIC50” value was 7.374.

`O=C(Oc1cncc(Cl)c1)c1cccc2ccccc12` [CMP168]: the “Inact.(<6)/Act.(>=6)” value with SARS-CoV 3CLpro [2] is reported as “Act. (Act.(>=6))”. Further, in the data set on SARS-CoV 3CLpro [3], the negative-log IC50 (pIC50) was 6.921 and the half-inhibitory concentration (IC50) is 0.12 µM. In addition, on SARS-CoV-2 3CLpro, the “SI*pIC50” value amounted to 7.073.

For `COc1ccc(N2C(=O)NC(=O)/C(=C\c3cc(Cl)c(OCc4cccc(C(=O)O)c4)c(Cl)c3)C2=O)cc1` [CMP103], the “Inact.(<6)/Act.(>=6)” value in the data set on SARS-CoV 3CLpro [2] is given as “Inact. (Inact.(<6))”. Further, in the data set with SARS-CoV 3CLpro [3], the pIC50 is on record as 5.164 and the IC50 was 6.86 µM. At SARS-CoV-2 3CLpro, the “SI*pIC50” value is listed as 5.315.

In the case of `CSc1[nH]nc(NC(=O)c2cccs2)c1S(=O)(=O)c1ccccc1` [CMP177], the “Inact.(<6)/Act.(>=6)” value with SARS-CoV 3CLpro [2] is listed as “Inact. (Inact.(<6))”. Further, in the data set with SARS-CoV 3CLpro [3], the pIC50 is recorded as 4.824 and the IC50 was 15 µM. Besides, the “SI*pIC50” value at SARS-CoV-2 3CLpro is on record as 4.976.

Regarding `CC1(C)CC(=O)c2c(NCc3ccco3)sc(C#N)c2C1` [CMP142], in the data set on SARS-CoV 3CLpro [2], the “Inact.(<6)/Act.(>=6)” value is listed as “Inact. (Inact.(<6))”. Also, in the data set with SARS-CoV 3CLpro [3], the pIC50 was 4.796 and the IC50 was 16 µM. Besides, the “SI*pIC50” value at SARS-CoV-2 3CLpro stood at 4.948.

In the case of `CN1C(=O)C(=O)c2cc(S(=O)(=O)N3CCOCC3)ccc21` [CMP149], the “Inact.(<6)/Act.(>=6)” value in the data set with SARS-CoV 3CLpro [2] is “Inact. (Inact.(<6))”. In the data set with SARS-CoV 3CLpro [3], the pIC50 is 5.004 and the IC50 is 9.91 µM. The “SI*pIC50” value at SARS-CoV-2 3CLpro came to 5.156.

In the case of `Nc1ncc(S(=O)(=O)c2ccc(Cl)cc2)c(N)n1` [CMP141], the “Inact.(<6)/Act.(>=6)” value in the data set on SARS-CoV 3CLpro [2] was “Inact. (Inact.(<6))”. For the same molecule, in the data set with SARS-CoV 3CLpro [3], the pIC50 is 5.222 and the IC50 was 6 µM. Also, the “SI*pIC50” value at SARS-CoV-2 3CLpro came to 5.374.

`CC(C)c1cc2c(cc1O)[C@@]1(C)CCC[C@@](C)(CO)[C@@H]1CC2` [CMP173]: the “Inact.(<6)/Act.(>=6)” value in the data set with SARS-CoV 3CLpro [2] was “Inact. (Inact.(<6))”. In the data set on SARS-CoV 3CLpro [3], the pIC50 is listed as 3.656 and the IC50 was 221 µM. The “SI*pIC50” value on SARS-CoV-2 3CLpro was 3.808.

For `COc1ccc(-c2cc(=O)c3c(O)cc(O)c(-c4cc(-c5cc(=O)c6c(O)cc(OC)cc6o5)ccc4OC)c3o2)cc1` [CMP155], the “Inact.(<6)/Act.(>=6)” value with SARS-CoV 3CLpro [2] was “Inact. (Inact.(<6))”. Besides, in the data set with SARS-CoV 3CLpro [3], the negative logarithm of the IC50 (pIC50) is 4.416 and the IC50 is 38.4 µM. The “SI*pIC50” value on SARS-CoV-2 3CLpro amounted to 4.568.

Regarding `CCOC(=O)C(=CNc1ccc(S(=O)(=O)c2ccc(/N=C/C(C(=O)OCC)=C(\O)OCC)cc2)cc1)C(=O)OCC` [CMP139], the “Inact.(<6)/Act.(>=6)” value in the data set on SARS-CoV 3CLpro [2] is on record as “Inact. (Inact.(<6))”. In the data set with SARS-CoV 3CLpro [3], the pIC50 is reported as 4.495 and the concentration for half-maximal inhibition (IC50) was 32 µM. The “SI*pIC50” value at SARS-CoV-2 3CLpro is 4.6468.

As for `O=C1Nc2ccc(S(=O)(=O)N3CCOCC3)cc2C1=O` [CMP159], the “Inact.(<6)/Act.(>=6)” value in the data set on SARS-CoV 3CLpro [2] is reported as “Inact. (Inact.(<6))”. For the same molecule, in the data set with SARS-CoV 3CLpro [3], the pIC50 is 4.898 and the half-maximal inhibitory concentration (IC50) was 12.7 µM. On SARS-CoV-2 3CLpro, the “SI*pIC50” value is recorded as 5.05.

As to `COc1cc(O)c2c(=O)cc(-c3ccc(OC)c(-c4c(O)cc(O)c5c(=O)cc(-c6ccc(O)cc6)oc45)c3)oc2c1` [CMP150], the “Inact.(<6)/Act.(>=6)” value in the data set with SARS-CoV 3CLpro [2] was “Inact. (Inact.(<6))”. In addition, in the data set on SARS-CoV 3CLpro [3], the pIC50 was 4.495 and the IC50 is 32 µM. Also, the “SI*pIC50” value on SARS-CoV-2 3CLpro came to 4.6468.

As to `Nc1nc(CSc2nnc(-c3cccc4ccccc34)n2-c2ccccc2)cs1` [CMP135], the “Inact.(<6)/Act.(>=6)” value in the data set on SARS-CoV 3CLpro [2] is given as “Inact. (Inact.(<6))”. In addition, in the data set on SARS-CoV 3CLpro [3], the pIC50 is reported as 4.234 and the IC50 is 58.3 µM. Further, the “SI*pIC50” value at SARS-CoV-2 3CLpro is 4.386.

Regarding `O=C(Oc1ccc(S(=O)(=O)c2ccc(OC(=O)C(Cl)=C(Cl)Cl)cc2)cc1)C(Cl)=C(Cl)Cl` [CMP137], in the data set on SARS-CoV 3CLpro [2], the “Inact.(<6)/Act.(>=6)” value is given as “Act. (Act.(>=6))”. Also, in the data set on SARS-CoV 3CLpro [3], the pIC50 was 6.046 and the IC50 is 0.9 µM. Also, the “SI*pIC50” value at SARS-CoV-2 3CLpro is 6.198.

In the case of `CC(C)C1=CC2=CC[C@@H]3[C@](C)(CCC[C@@]3(C)C(=O)O)[C@H]2CC1` [CMP124], the “Inact.(<6)/Act.(>=6)” value in the data set on SARS-CoV 3CLpro [2] is listed as “Inact. (Inact.(<6))”. In addition, in the data set with SARS-CoV 3CLpro [3], the pIC50 was 3.723 and the half-maximal inhibitory concentration (IC50) was 189 µM. Further, on SARS-CoV-2 3CLpro, the “SI*pIC50” value is 3.875.

The term pIC50 denotes −log10 of the IC50, conventionally taken in molar units. Usually IC50 stands for the midpoint of a concentration-inhibition curve.
